Legend:
[1] = tested on: Hepatocyte; test: Cellular uptake in Wistar rat hepatocytes at 5 uM after 2 mins; format: ADME, cell-based
[2] = tested on: Hepatocyte; test: Cellular uptake in Wistar rat hepatocytes at 2.5 uM in presence of TEA; format: ADME, cell-based
[3] = molecular target: T1, Solute carrier organic anion transporter family member 1B3 (Homo sapiens, UniProt Q9NPD5); test: Cellular uptake in HEK293 cells expressing OATP1B3 (unknown origin) assessed as inhibition of (-)-epigallocatechin gallate-mediated drug transport; format: ADME, cell-based
T1 sequence (Q9NPD5 whole entry): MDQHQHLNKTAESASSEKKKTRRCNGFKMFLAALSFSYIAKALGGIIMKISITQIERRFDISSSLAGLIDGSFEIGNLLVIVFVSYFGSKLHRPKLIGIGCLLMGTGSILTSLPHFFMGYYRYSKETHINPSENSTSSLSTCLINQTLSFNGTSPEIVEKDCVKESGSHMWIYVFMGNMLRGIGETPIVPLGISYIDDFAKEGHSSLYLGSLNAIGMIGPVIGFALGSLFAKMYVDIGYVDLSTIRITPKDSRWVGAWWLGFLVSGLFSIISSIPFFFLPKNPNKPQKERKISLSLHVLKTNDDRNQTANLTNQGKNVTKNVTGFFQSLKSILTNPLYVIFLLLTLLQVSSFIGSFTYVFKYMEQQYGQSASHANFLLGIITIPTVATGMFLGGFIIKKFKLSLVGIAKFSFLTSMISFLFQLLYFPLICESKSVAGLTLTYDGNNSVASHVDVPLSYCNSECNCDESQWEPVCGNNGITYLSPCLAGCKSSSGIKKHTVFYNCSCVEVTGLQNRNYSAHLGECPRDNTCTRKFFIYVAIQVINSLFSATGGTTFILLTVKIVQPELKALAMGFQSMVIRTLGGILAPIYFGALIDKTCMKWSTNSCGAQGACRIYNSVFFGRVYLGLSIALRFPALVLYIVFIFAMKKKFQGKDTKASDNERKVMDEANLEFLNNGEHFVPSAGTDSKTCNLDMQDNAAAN

[4] = tested on: Liver; test: Drug uptake in Wistar rat liver assessed as liver uptake index at 0.2 mg/kg, iv in presence of rifampicin; format: ADME, organism-based; design: dose 0.2 mg/kg, route intravenous; settings: in vivo
[5] = tested on: Hepatocyte; test: Cellular uptake in Wistar rat hepatocytes at 2.5 uM after 2 mins; format: ADME, cell-based
[6] = tested on: Hepatocyte; test: Cellular uptake in Wistar rat hepatocytes at 2.5 uM in presence of digoxin; format: ADME, cell-based
[7] = molecular target: T1, Solute carrier organic anion transporter family member 1B3; test: Cellular uptake in HEK293 cells expressing OATP1B3 (unknown origin) assessed as inhibition of rifampicin-mediated drug transport; format: ADME, cell-based
[8] = tested on: Liver; test: Drug uptake in Wistar rat liver at 5 uM after 1 to 30 mins by LC-MS/MS analysis in presence of cyclosporin A; format: ADME, tissue-based; settings: in vivo
[9] = tested on: HEK293; test: Cellular uptake in HEK293 cells at 2.5 uM after 1 min; format: ADME, cell-based; settings: human, hek293, 1 min
[10] = Cellular uptake in Wistar rat hepatocytes at 0.2 to 2.5 uM; format: ADME, cell-based, Hepatocyte
[11] = Drug uptake in Wistar rat liver assessed as hepatic extraction ratio at 2.5 uM after 1 to 60 mins; format: ADME, tissue-based; settings: read-out: ERH
[12] = Intrinsic clearance in human; format: ADME, organism-based; settings: in vivo
[13] = tested on: Hepatocyte; test: Cellular uptake in Wistar rat hepatocytes at 2.5 uM in presence of Na+; format: ADME, cell-based
[14] = tested on: Hepatocyte; test: Cellular uptake in Wistar rat hepatocytes at 2.5 uM in presence of cyclosporin A; format: ADME, cell-based
[15] = tested on: Hepatocyte; test: Cellular uptake in Wistar rat hepatocytes at 2.5 uM in presence of PAH; format: ADME, cell-based
[16] = tested on: Liver; test: Drug uptake in Wistar rat liver assessed as liver uptake index at 0.2 mg/kg, iv in presence of cyclosporin A; format: ADME, organism-based; design: dose 0.2 mg/kg, route intravenous; settings: in vivo
[17] = tested on: Hepatocyte; test: Cellular uptake in Wistar rat hepatocytes at 2.5 uM in presence of K+; format: ADME, cell-based
[18] = molecular target: T1, Solute carrier organic anion transporter family member 1B3; test: Cellular uptake in HEK293 cells expressing OATP1B3 (unknown origin) assessed as inhibition of telmisartan-mediated drug transport; format: ADME, cell-based
[19] = tested on: Hepatocyte; test: Cellular uptake in Wistar rat hepatocytes at 2.5 uM in presence of glycyrrhizic acid; format: ADME, cell-based
[20] = Drug uptake in Wistar rat liver assessed as hepatic extraction ratio at 2.5 uM after 1 to 60 mins in presence of cyclosporin A; format: ADME, tissue-based; settings: with cyclosporin A, read-out: ERH
[21] = tested on: Liver; test: Drug uptake in Wistar rat liver at 5 uM after 1 to 30 mins by LC-MS/MS analysis in presence of glycyrrhizic acid; format: ADME, tissue-based; settings: in vivo
[22] = tested on: Liver; test: Drug uptake in Wistar rat liver at 5 uM after 1 to 30 mins by LC-MS/MS analysis in presence of TEA; format: ADME, tissue-based; settings: in vivo
[23] = tested on: Liver; test: Drug uptake in Wistar rat liver assessed as liver uptake index at 0.2 mg/kg, iv; format: ADME, organism-based; design: dose 0.2 mg/kg, route intravenous; settings: in vivo
[24] = Drug uptake in Wistar rat liver assessed as hepatic extraction ratio at 2.5 uM after 1 to 60 mins in presence of rifampicin; format: ADME, tissue-based; settings: with rifampicin, read-out: ERH
[25] = tested on: Liver; test: Drug uptake in Wistar rat liver at 5 uM after 1 to 30 mins by LC-MS/MS analysis in presence of digoxin; format: ADME, tissue-based; settings: in vivo
[26] = molecular target: T1, Solute carrier organic anion transporter family member 1B3; test: Cellular uptake in HEK293 cells expressing OATP1B3 (unknown origin) assessed as inhibition of cyclosporin A-mediated drug transport; format: ADME, cell-based
[27] = Plasma clearance in Wistar rat; format: ADME, organism-based
[28] = Fraction unbound in Wistar rat plasma at 2.5 uM by LC-MS/MS analysis; format: ADME, cell-free
[29] = tested on: Hepatocyte; test: Cellular uptake in Wistar rat hepatocytes at 2.5 uM in presence of rifampicin; format: ADME, cell-based
[30] = tested on: Hepatocyte; test: Cellular uptake in Wistar rat hepatocytes at 2.5 uM in presence of ibuprofen; format: ADME, cell-based
[31] = molecular target: T2, OATP1B3 (Homo sapiens, UniProt Q9NPD5); test: (§1) Activity at OATP1B3 (unknown origin) expressed in HEK293 cells assessed as compound transport; format: ADME, cell-based; settings: HEK293 cells expressing OATP1B3
T2 sequence (Q9NPD5 whole entry): T1 sequence (Q9NPD5 whole entry)

[32] = molecular target: T1, Solute carrier organic anion transporter family member 1B3; test: as §1; format: ADME, cell-based; settings: hek293
[33] = tested on: Liver; test: Drug uptake in Wistar rat liver at 5 uM after 1 to 30 mins by LC-MS/MS analysis in presence of ibuprofen; format: ADME, tissue-based; settings: in vivo
[34] = tested on: Liver; test: Drug uptake in Wistar rat liver at 5 uM after 1 to 30 mins by LC-MS/MS analysis in presence of rifampicin; format: ADME, tissue-based; settings: in vivo
[35] = tested on: Hepatocyte; test: Cellular uptake in Wistar rat hepatocytes assessed as rate of drug transport per 10^6 cells at 0.2 to 2.5 uM; format: ADME, cell-based
[36] = tested on: Liver; test: Drug uptake in Wistar rat liver at 5 uM after 15 mins by LC-MS/MS analysis; format: ADME, tissue-based; settings: in vivo, 0.25 h
[37] = Ratio of drug level in blood to plasma in Wistar rat at 2.5 uM after 5 mins by LC-MS/MS analysis; format: ADME
[38] = Drug uptake in MDCK2 cells at 2.5 uM after 30 to 180 mins by LC-MS/MS analysis; format: ADME, cell-based, Canis lupus familiaris; settings: dog, mdck-ii
[39] = Drug uptake in MDCK2 cells expressing OATP1B1/MRP2 (unknown origin) at 2.5 uM after 30 to 180 mins by LC-MS/MS analysis; format: ADME, cell-based, Canis lupus familiaris; settings: dog, mdck-ii
[40] = Clearance in human hepatocytes assessed per 10^6 cells; format: ADME, cell-based, Hepatocyte; settings: read-out: CLH
[41] = tested on: Liver; test: Drug uptake in Wistar rat liver at 5 uM after 1 to 30 mins by LC-MS/MS analysis in presence of PAH; format: ADME, tissue-based; settings: in vivo
[42] = tested on: Liver; test: Drug uptake in Wistar rat liver at 2.5 uM after 30 mins; format: ADME, tissue-based; settings: in vivo, 0.5 h
[43] = Drug uptake in MDCK2 cells expressing OATP1B1 (unknown origin) at 2.5 uM after 30 to 180 mins by LC-MS/MS analysis; format: ADME, cell-based, Canis lupus familiaris; settings: dog, mdck-ii
[44] = Fraction unbound in Wistar rat blood; format: ADME, tissue-based
[45] = tested on: OATP1B1; test: Efflux ratio of permeability from basolateral to apical side to apical to basolateral side in MDCK2 cells expressing OATP1B1 (unknown origin) at 1 uM after 30 to 180 mins by LC-MS/MS analysis; format: ADME, cell-based, Canis lupus familiaris, MDCK-II; settings: dog, MDCK
[46] = tested on: OATP1B1/MRP2; test: Efflux ratio of permeability from basolateral to apical side to apical to basolateral side in MDCK2 cells expressing OATP1B1/MRP2 (unknown origin) at 1 uM after 30 to 180 mins by LC-MS/MS analysis; format: ADME, cell-based, Canis lupus familiaris, MDCK-II; settings: dog

C[C@H]1O[C@@H](O[C@H]2[C@@H](O)C[C@H](O[C@H]3[C@@H](O)C[C@H](O[C@H]4CC[C@@]5(C)[C@H](CC[C@@H]6[C@@H]5C[C@@H](O)[C@]5(C)[C@@H](C7=CC(=O)OC7)CC[C@]65O)C4)O[C@@H]3C)O[C@@H]2C)C[C@H](O)[C@@H]1O [DIGOXIN]
Drug uptake [1]: Active

C[C@@H]1CC[C@@]2(OC1)O[C@H]1C[C@H]3[C@@H]4CC=C5C[C@@H](O[C@@H]6O[C@H](CO)[C@@H](O[C@@H]7O[C@@H](C)[C@H](O)[C@@H](O)[C@H]7O)[C@H](O)[C@H]6O[C@@H]6O[C@@H](C)[C@H](O)[C@@H](O)[C@H]6O)CC[C@]5(C)[C@H]4CC[C@]3(C)[C@H]1[C@@H]2C [DIOSCIN]
Drug uptake [2]: Active | Ki [3]: 8290 nM | LUI [4]: 5.5% | Drug uptake [5]: Active | Drug uptake [6]: Not Active | Ki [7]: 4550 nM | Drug uptake [8]: Not Active | Drug uptake [9]: Active | Km at up to 2.5 µM [10]: 3.75 µM | hepatic extraction ratio at 2.5 µM [11]: 0.15 | CLint scaled [12]: 168 mL/min/kg | Drug uptake [13]: Active | Drug uptake [14]: Not Active | Drug uptake [15]: Active | LUI [16]: 6.9% | Drug uptake [17]: Active | Ki [18]: 1030 nM | Drug uptake [19]: Not Active | hepatic extraction ratio at 2.5 µM [20]: 0.074 | Drug uptake [21]: Not Active | Drug uptake [22]: Active | LUI [23]: 11.9% | hepatic extraction ratio at 2.5 µM [24]: 0.082 | Drug uptake [25]: Not Active | Ki [26]: 1430 nM | clearance [27]: 3.86 mL/min/kg | fraction unbound at 2.5 µM [28]: 0.061 | Drug uptake [29]: Not Active | Drug uptake [30]: Not Active | Km [31]: 2.08 µM | Vmax [32]: 730 pmol/min/mg | Drug uptake [33]: Not Active | Drug uptake [34]: Not Active | Vmax [35]: 588 pmol/min | Drug uptake [36]: Active | blood plasma ratio at 5 min, 2.5 µM [37]: 0.771 | Drug uptake [38]: Active | Drug uptake [39]: Active | hepatocyte CLint [40]: 35 µL/min/1e6 cells | Drug uptake [41]: Active | Drug uptake [42]: Active | Drug uptake [43]: Active | fraction unbound [44]: 0.079

C[C@]12CC[C@@H]3c4ccc(OS(=O)(=O)O)cc4CC[C@H]3[C@@H]1CCC2=O [ESTRONE SULFURIC ACID]
efflux ratio at 1 µM [45]: 2.8 | efflux ratio at 1 µM [46]: 4.2

— ChEMBL document CHEMBL3526131, “Involvement of organic anion-transporting polypeptides in the hepatic uptake of dioscin in rats and humans” (Drug Metab Dispos, 2013)
